Source: EP4745137A1 (Gluetacs Therapeutics (Shanghai) Co., Ltd., priority 2023, dated 2025)

Key:
WEE1 = molecular target: T1, WEE1 (Homo sapiens, UniProt P30291+Q96SW2); experiment: Western-blot assay of substrate protein degradation in hPBMCs, WEE1; type: cell-based; conditions: 24 hours of compound treatment
T1 construct: endogenous in cells; host or cells: hPBMCs (Milecell Biotechnologies)

IKZF3 = molecular target: T2, IKZF3 (Homo sapiens, UniProt Q96SW2+Q9UKT9); experiment: Western-blot assay of substrate protein degradation in hPBMCs, IKZF3; type: cell-based; conditions: 24 hours of compound treatment
T2 construct: endogenous in cells; host or cells: hPBMCs (Milecell Biotechnologies)

GSPT1 = molecular target: T3, GSPT1 (Homo sapiens, UniProt P15170+Q96SW2); experiment: Western-blot assay of substrate protein degradation in hPBMCs, GSPT1; type: cell-based; conditions: 24 hours of compound treatment
T3 construct: endogenous in cells; host or cells: hPBMCs (Milecell Biotechnologies)

CK1α = molecular target: T4, CK1α (Homo sapiens, UniProt P48729+Q96SW2); experiment: Western-blot assay of substrate protein degradation in hPBMCs, CK1α; type: cell-based; conditions: 24 hours of compound treatment
T4 construct: endogenous in cells; host or cells: hPBMCs (Milecell Biotechnologies)

[1] = molecular target: T5, human Cereblon WT GST-tagged protein (Homo sapiens, UniProt Q96SW2); experiment: CRBN-binding affinity by HTRF (CEREBLON BINDING kit); conditions: HTRF inhibitory activity, CEREBLON BINDING kit; read-out: HTRF IC50
T5 construct: purchased CISBIO 64BDCRBNPEH

IKZF2 = molecular target: T6, IKZF2 (Homo sapiens, UniProt Q96SW2+Q9UKS7); experiment: Western-blot assay of substrate protein degradation in hPBMCs, IKZF2; type: cell-based; conditions: 24 hours of compound treatment
T6 construct: endogenous in cells; host or cells: hPBMCs (Milecell Biotechnologies)

IKZF1 = molecular target: T7, IKZF1 (Homo sapiens, UniProt Q13422+Q96SW2); experiment: Western-blot assay of substrate protein degradation in hPBMCs, IKZF1; type: cell-based; conditions: 24 hours of compound treatment
T7 construct: endogenous in cells; host or cells: hPBMCs (Milecell Biotechnologies)

[2] = compounds tested at 50 nM and 500 nM (concentration of the table not stated)
[3] = 50 nM and 500 nM tested (concentration behind the class not stated)

T6 sequence (Q9UKS7 whole entry): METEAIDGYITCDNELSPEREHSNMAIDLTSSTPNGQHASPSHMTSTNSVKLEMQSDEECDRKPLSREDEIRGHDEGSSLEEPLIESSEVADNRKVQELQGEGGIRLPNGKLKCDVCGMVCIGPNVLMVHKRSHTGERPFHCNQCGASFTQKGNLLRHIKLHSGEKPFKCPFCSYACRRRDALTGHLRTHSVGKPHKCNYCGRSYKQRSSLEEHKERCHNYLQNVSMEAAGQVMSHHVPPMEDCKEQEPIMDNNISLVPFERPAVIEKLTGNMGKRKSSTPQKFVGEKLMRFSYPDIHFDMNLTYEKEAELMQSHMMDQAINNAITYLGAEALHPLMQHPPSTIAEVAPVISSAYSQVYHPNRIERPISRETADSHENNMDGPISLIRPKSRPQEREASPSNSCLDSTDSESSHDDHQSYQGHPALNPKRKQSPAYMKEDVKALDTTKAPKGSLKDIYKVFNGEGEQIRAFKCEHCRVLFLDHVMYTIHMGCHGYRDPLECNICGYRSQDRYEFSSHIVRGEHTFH
T6 sequence (Q96SW2 whole entry): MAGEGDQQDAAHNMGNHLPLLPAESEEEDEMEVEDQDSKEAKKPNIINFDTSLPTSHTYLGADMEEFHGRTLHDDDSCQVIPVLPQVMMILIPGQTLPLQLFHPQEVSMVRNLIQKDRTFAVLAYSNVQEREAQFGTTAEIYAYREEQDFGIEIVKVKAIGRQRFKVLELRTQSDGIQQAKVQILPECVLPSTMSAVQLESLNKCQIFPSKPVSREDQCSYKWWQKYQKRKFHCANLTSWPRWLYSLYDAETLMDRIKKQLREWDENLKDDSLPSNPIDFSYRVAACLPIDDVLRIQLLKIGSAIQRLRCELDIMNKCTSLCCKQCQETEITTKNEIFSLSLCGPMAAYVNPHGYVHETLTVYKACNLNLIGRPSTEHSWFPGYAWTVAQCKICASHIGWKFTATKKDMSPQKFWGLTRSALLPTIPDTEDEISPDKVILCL
T6 sequence (Q16531 whole entry partner): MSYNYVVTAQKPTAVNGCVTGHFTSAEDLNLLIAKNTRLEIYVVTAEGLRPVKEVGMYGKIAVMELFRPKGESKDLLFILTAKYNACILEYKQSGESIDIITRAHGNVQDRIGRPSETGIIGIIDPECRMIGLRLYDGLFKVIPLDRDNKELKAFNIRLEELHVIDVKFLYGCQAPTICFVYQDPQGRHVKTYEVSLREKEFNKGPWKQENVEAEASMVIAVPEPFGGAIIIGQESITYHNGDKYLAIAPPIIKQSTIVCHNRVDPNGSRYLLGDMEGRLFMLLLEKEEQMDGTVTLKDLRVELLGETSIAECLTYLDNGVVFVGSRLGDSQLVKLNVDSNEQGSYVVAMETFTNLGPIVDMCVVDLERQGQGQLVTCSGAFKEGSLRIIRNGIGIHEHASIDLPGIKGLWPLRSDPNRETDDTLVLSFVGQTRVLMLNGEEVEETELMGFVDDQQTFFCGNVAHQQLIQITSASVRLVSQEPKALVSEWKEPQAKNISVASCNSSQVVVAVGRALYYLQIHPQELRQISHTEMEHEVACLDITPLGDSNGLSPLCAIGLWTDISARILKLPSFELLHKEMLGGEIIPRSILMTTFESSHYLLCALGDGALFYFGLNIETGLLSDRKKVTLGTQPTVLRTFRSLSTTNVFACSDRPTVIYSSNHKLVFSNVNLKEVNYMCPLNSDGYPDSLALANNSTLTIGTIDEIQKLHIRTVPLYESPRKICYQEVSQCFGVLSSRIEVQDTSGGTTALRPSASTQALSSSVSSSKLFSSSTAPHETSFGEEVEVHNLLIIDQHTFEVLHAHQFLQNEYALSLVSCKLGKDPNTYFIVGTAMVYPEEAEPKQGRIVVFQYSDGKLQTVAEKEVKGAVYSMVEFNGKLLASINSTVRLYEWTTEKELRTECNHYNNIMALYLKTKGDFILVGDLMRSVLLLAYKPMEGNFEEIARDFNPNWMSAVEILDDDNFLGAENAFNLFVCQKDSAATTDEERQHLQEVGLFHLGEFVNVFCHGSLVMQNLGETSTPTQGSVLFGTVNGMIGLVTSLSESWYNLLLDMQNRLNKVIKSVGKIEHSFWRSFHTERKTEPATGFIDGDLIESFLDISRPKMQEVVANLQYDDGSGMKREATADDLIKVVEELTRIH
T4 sequence (P48729 whole entry): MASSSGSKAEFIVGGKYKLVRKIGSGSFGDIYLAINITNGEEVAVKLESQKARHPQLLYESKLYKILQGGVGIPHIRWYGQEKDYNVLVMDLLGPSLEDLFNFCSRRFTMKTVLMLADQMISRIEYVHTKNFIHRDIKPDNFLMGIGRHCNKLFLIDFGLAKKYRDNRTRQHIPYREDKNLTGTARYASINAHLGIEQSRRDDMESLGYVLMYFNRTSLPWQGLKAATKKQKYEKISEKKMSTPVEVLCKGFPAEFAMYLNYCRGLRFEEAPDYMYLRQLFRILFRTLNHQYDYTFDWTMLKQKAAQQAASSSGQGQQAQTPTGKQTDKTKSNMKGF
T4 sequence (Q96SW2 whole entry): as the sequence (Q96SW2 whole entry) above
T4 sequence (Q16531 whole entry partner): as the sequence (Q16531 whole entry partner) above
T3 sequence (P15170 whole entry): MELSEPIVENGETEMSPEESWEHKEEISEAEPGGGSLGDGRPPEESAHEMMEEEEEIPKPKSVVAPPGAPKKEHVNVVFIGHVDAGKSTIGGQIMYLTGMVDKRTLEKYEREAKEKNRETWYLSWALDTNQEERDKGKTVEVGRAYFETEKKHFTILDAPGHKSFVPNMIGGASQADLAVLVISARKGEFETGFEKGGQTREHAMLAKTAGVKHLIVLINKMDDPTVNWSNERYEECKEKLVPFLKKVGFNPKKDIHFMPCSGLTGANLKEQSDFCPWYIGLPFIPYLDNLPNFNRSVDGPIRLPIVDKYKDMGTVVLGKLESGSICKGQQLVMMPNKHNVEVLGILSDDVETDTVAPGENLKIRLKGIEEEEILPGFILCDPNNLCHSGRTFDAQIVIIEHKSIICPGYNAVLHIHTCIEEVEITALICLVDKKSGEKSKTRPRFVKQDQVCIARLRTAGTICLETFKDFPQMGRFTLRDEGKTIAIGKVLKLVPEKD
T3 sequence (Q96SW2 whole entry): as the sequence (Q96SW2 whole entry) above
T3 sequence (Q16531 whole entry partner): as the sequence (Q16531 whole entry partner) above
T2 sequence (Q9UKT9 whole entry): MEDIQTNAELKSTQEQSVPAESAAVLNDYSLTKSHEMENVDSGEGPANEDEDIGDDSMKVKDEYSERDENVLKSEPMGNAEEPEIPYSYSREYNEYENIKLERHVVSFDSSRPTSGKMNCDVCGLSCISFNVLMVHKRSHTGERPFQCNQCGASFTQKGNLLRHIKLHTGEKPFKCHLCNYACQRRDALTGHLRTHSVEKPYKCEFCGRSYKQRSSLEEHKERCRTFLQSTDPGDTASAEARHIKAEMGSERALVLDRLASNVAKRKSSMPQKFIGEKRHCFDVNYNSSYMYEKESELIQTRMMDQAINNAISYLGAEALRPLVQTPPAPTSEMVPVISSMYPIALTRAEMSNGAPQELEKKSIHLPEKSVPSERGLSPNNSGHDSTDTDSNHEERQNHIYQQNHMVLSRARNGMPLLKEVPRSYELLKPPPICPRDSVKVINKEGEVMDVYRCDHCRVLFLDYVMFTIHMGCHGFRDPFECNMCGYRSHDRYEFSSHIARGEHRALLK
T2 sequence (Q96SW2 whole entry): as the sequence (Q96SW2 whole entry) above
T2 sequence (Q16531 whole entry partner): as the sequence (Q16531 whole entry partner) above
T1 sequence (P30291 whole entry): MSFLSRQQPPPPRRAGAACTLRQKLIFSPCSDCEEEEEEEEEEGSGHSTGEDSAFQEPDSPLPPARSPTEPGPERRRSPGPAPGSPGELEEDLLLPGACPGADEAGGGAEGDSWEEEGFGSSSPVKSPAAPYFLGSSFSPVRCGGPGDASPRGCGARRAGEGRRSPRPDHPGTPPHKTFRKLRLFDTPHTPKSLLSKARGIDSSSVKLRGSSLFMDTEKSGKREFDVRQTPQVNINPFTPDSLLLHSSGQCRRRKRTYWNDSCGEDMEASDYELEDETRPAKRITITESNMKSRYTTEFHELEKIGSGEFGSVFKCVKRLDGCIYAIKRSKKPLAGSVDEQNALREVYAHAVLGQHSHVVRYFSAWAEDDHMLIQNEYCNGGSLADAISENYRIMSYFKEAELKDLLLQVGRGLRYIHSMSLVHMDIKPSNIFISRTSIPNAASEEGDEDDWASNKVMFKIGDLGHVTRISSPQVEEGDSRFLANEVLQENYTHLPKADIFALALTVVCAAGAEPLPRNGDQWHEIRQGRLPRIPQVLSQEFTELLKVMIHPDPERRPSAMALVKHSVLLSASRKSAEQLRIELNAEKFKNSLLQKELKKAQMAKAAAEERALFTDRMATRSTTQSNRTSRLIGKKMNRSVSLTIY
T1 sequence (Q96SW2 whole entry): as the sequence (Q96SW2 whole entry) above
T1 sequence (Q16531 whole entry partner): as the sequence (Q16531 whole entry partner) above
T5 sequence (Q96SW2 whole entry): as the sequence (Q96SW2 whole entry) above

Structure (SMILES) | Weel substrate protein remaining % (WEE1; [2]) | IKZF3 substrate protein remaining % (IKZF3; [2]) | GSPT1 substrate protein remaining % (GSPT1; [2]) | CK1a substrate protein remaining % (CK1α; [2]) | IC50 [1] [µM] | IKZF2 substrate protein remaining % (IKZF2; [2]) | IKZF 1 substrate protein remaining % (IKZF1; [2]) | Weel substrate protein remaining % (WEE1; [3]) | IKZF3 substrate protein remaining % (IKZF3; [3]) | GSPT1 substrate protein remaining % (GSPT1; [3]) | CK1a substrate protein remaining % (CK1α; [3]) | IKZF2 substrate protein remaining % (IKZF2; [3]) | IKZF 1 substrate protein remaining % (IKZF1; [3])
O=C1CCC(N2Cc3cc(CN4CCN(c5nsc6cc(F)ccc56)CC4)ccc3C2=O)C(=O)N1 (centres unmarked) [GT-05332, 3-(5-((4-(6-fluorobenzo[d]isothiazol-3-yl)piperazin-1-yl)methyl)-1-oxoisoindolin-2-yl)piperidine-2,6-dione] | B (80%< substrate protein remaining %≤ 100%) | B (80%< substrate protein remaining %≤ 100%) | B (80%< substrate protein remaining %≤ 100%) | B (80%< substrate protein remaining %≤ 100%) | < 0.5 | A (0% ≤ substrate protein remaining % ≤ 80%) | B (80%< substrate protein remaining %≤ 100%) |  |  |  |  |  | 
O=C1CCC(N2Cc3cc(CN4CCN(c5nc(N6CCCC6)nc6c5SCC6)CC4)ccc3C2=O)C(=O)N1 (centres unmarked) [GT-05389, 3-(1-oxo-5-((4-(2-(pyrrolidin-1-yl)-6,7-dihydrothieno[3,2-d]pyrimidin-4-yl)piperazin-1-yl)methyl)isoindolin-2-yl)piperidine-2,6-dione] | B (80%< substrate protein remaining %≤ 100%) | B (80%< substrate protein remaining %≤ 100%) | B (80%< substrate protein remaining %≤ 100%) | B (80%< substrate protein remaining %≤ 100%) | < 0.5 | A (0% ≤ substrate protein remaining % ≤ 80%) | A (0% ≤ substrate protein remaining % ≤ 80%) |  |  |  |  |  | 
O=C1CCC(N2Cc3cc(CN4CCN(c5nc(N6CCC6)nc6c5SCC6)CC4)ccc3C2=O)C(=O)N1 (centres unmarked) [GT-05900, 3-(5-((4-(2-(azetidin-1-yl)-6,7-dihydrothieno[3,2-d]pyrimidin-4-yl)piperazin-1-yl)methyl)-1-oxoisoindolin-2-yl)piperidine-2,6-dione] |  |  |  |  | < 0.5 |  |  | B (80%< substrate protein remaining %≤ 100%) | A (0% ≤ substrate protein remaining % ≤ 80%) | B (80%< substrate protein remaining %≤ 100%) | B (80%< substrate protein remaining %≤ 100%) | A (0% ≤ substrate protein remaining % ≤ 80%) | B (80%< substrate protein remaining %≤ 100%)
O=C1CCC(N2C(=O)c3ccc(CN4CCN(c5cccs5)CC4)cc3C2=O)C(=O)N1 (centres unmarked) [GT-06212, 2-(2,6-dioxopiperidin-3-yl)-5-((4-(thiophen-2-yl)piperazin-1-yl)methyl)isoindoline-1,3-dione] |  |  |  |  | < 0.5 |  |  | B (80%< substrate protein remaining %≤ 100%) | B (80%< substrate protein remaining %≤ 100%) | A (0% ≤ substrate protein remaining % ≤ 80%) | B (80%< substrate protein remaining %≤ 100%) | A (0% ≤ substrate protein remaining % ≤ 80%) | B (80%< substrate protein remaining %≤ 100%)
Cc1ccc(N2CCN(Cc3ccc4c(c3)C(=O)N(C3CCC(=O)NC3=O)C4=O)CC2)s1 (centres unmarked) [GT-06213, 2-(2,6-dioxopiperidin-3-yl)-5-((4-(5-methylthiophen-2-yl)piperazin-1-yl)methyl)isoindoline-1,3-dione] |  |  |  |  | 1.5 to 1.9 |  |  | B (80%< substrate protein remaining %≤ 100%) | B (80%< substrate protein remaining %≤ 100%) | A (0% ≤ substrate protein remaining % ≤ 80%) | B (80%< substrate protein remaining %≤ 100%) | A (0% ≤ substrate protein remaining % ≤ 80%) | B (80%< substrate protein remaining %≤ 100%)
O=C1CCC(N2C(=O)c3ccc(CN4CCN(c5ccsc5)CC4)cc3C2=O)C(=O)N1 (centres unmarked) [GT-06215, 2-(2,6-dioxopiperidin-3-yl)-5-((4-(thiophen-3-yl)piperazin-1-yl)methyl)isoindoline-1,3-dione] |  |  |  |  | 0.5 to 1 |  |  | A (0% ≤ substrate protein remaining % ≤ 80%) | A (0% ≤ substrate protein remaining % ≤ 80%) | B (80%< substrate protein remaining %≤ 100%) | A (0% ≤ substrate protein remaining % ≤ 80%) | B (80%< substrate protein remaining %≤ 100%) | B (80%< substrate protein remaining %≤ 100%)
Cc1ccc(C2=CCN(Cc3ccc4c(c3)C(=O)N(C3CCC(=O)NC3=O)C4=O)CC2)s1 (centres unmarked) [GT-06220, 2-(2,6-dioxopiperidin-3-yl)-5-((4-(5-methylthiophen-2-yl)-3,6-dihydropyridin-1(2H)-yl)methyl)isoindoline-1,3-dione] |  |  |  |  | 1.5 to 1.9 |  |  | A (0% ≤ substrate protein remaining % ≤ 80%) | A (0% ≤ substrate protein remaining % ≤ 80%) | A (0% ≤ substrate protein remaining % ≤ 80%) | A (0% ≤ substrate protein remaining % ≤ 80%) | A (0% ≤ substrate protein remaining % ≤ 80%) | A (0% ≤ substrate protein remaining % ≤ 80%)
O=C1CCC(N2C(=O)c3ccc(CN4CC=C(c5ccco5)CC4)cc3C2=O)C(=O)N1 (centres unmarked) [GT-06222, 2-(2,6-dioxopiperidin-3-yl)-5-((4-(furan-2-yl)-3,6-dihydropyridin-1(2H)-yl)methyl)isoindoline-1,3-dione] |  |  |  |  | 1 to 1.5 |  |  | A (0% ≤ substrate protein remaining % ≤ 80%) | A (0% ≤ substrate protein remaining % ≤ 80%) | A (0% ≤ substrate protein remaining % ≤ 80%) | A (0% ≤ substrate protein remaining % ≤ 80%) | A (0% ≤ substrate protein remaining % ≤ 80%) | A (0% ≤ substrate protein remaining % ≤ 80%)
O=C1CCC(N2C(=O)c3ccc(CN4CC=C(c5ccoc5)CC4)cc3C2=O)C(=O)N1 (centres unmarked) [GT-06223, 2-(2,6-dioxopiperidin-3-yl)-5-((4-(furan-3-yl)-3,6-dihydropyridin-1(2H)-yl)methyl)isoindoline-1,3-dione] |  |  |  |  | 1 to 1.5 |  |  | A (0% ≤ substrate protein remaining % ≤ 80%) | A (0% ≤ substrate protein remaining % ≤ 80%) | A (0% ≤ substrate protein remaining % ≤ 80%) | A (0% ≤ substrate protein remaining % ≤ 80%) | B (80%< substrate protein remaining %≤ 100%) | A (0% ≤ substrate protein remaining % ≤ 80%)
O=C1CCC(N2C(=O)c3ccc(CN4CCC(=C5CCOc6cc(F)ccc65)CC4)cc3C2=O)C(=O)N1 (centres unmarked) [GT-06238, 2-(2,6-dioxopiperidin-3-yl)-5-((4-(7-fluorochroman-4-ylidene)piperidin-1-yl)methyl)isoindoline-1,3-dione] | B (80%< substrate protein remaining %≤ 100%) | A (0% ≤ substrate protein remaining % ≤ 80%) | A (0% ≤ substrate protein remaining % ≤ 80%) | B (80%< substrate protein remaining %≤ 100%) | 1 to 1.5 | A (0% ≤ substrate protein remaining % ≤ 80%) | B (80%< substrate protein remaining %≤ 100%) |  |  |  |  |  | 
Cc1csc2ncnc(N3CCN(Cc4ccc5c(c4)C(=O)N(C4CCC(=O)NC4=O)C5=O)CC3)c12 (centres unmarked) [GT-06304, 2-(2,6-dioxopiperidin-3-yl)-5-((4-(5-methylthieno[2,3-d]pyrimidin-4-yl)piperazin-1-yl)methyl)isoindoline-1,3-dione] |  |  |  |  | 0.5 to 1 |  |  | B (80%< substrate protein remaining %≤ 100%) | B (80%< substrate protein remaining %≤ 100%) | B (80%< substrate protein remaining %≤ 100%) | B (80%< substrate protein remaining %≤ 100%) | A (0% ≤ substrate protein remaining % ≤ 80%) | A (0% ≤ substrate protein remaining % ≤ 80%)
